From article PMC7460240 (Biomedicines, 2020)
Converted amounts (≈) assume the structure as drawn. Structures can show the parent of a compound that is named as a salt.

How the values were obtained:
[1] = test system: H295R cells; test: Cytotoxicity assay (neutral red, 48 h) on H295R cells; assay type: cell-based, human
Procedure: (§1) Cytotoxicity assays on H295R cells were carried out as previously described. Briefly, H295R cells were grown in 96-well plates to achieve 70% to 80% confluence. […] An amount of 100 µL of medium containing increasing concentrations of dxr was then added. […] After 48 h, cells were incubated 3 h at 37 °C with neutral red (NR) solution following the manufacturer’s protocol. Absorbance was measured in a microplate reader (Multiskan Go Microplate Spectrophotometer from Thermo Fisher Scientific, Illkirch, France).

[2] = test system: H295R cells; test: cells; conditions: Homo sapiens, NCI-H295R, 168 h, read-out: Dxr-IC50 (proliferation), astemizole 0 µM
[3] = biological target: T1, Ptch1 (Homo sapiens, UniProt Q13635); test: Screening on the resistance to doxorubicin of yeast expressing human Ptch1 (growth, OD600); assay type: cell-based; parameters: expressed in transfected cells; host or cells: Saccharomyces cerevisiae strain K699; conditions: 10 µM compound; for effect on resistance/growth of hPtch1-expressing yeast in the presence of dxr: 10 µM dxr, 18 °C, about 72 h
T1 sequence (Q13635 1-1447): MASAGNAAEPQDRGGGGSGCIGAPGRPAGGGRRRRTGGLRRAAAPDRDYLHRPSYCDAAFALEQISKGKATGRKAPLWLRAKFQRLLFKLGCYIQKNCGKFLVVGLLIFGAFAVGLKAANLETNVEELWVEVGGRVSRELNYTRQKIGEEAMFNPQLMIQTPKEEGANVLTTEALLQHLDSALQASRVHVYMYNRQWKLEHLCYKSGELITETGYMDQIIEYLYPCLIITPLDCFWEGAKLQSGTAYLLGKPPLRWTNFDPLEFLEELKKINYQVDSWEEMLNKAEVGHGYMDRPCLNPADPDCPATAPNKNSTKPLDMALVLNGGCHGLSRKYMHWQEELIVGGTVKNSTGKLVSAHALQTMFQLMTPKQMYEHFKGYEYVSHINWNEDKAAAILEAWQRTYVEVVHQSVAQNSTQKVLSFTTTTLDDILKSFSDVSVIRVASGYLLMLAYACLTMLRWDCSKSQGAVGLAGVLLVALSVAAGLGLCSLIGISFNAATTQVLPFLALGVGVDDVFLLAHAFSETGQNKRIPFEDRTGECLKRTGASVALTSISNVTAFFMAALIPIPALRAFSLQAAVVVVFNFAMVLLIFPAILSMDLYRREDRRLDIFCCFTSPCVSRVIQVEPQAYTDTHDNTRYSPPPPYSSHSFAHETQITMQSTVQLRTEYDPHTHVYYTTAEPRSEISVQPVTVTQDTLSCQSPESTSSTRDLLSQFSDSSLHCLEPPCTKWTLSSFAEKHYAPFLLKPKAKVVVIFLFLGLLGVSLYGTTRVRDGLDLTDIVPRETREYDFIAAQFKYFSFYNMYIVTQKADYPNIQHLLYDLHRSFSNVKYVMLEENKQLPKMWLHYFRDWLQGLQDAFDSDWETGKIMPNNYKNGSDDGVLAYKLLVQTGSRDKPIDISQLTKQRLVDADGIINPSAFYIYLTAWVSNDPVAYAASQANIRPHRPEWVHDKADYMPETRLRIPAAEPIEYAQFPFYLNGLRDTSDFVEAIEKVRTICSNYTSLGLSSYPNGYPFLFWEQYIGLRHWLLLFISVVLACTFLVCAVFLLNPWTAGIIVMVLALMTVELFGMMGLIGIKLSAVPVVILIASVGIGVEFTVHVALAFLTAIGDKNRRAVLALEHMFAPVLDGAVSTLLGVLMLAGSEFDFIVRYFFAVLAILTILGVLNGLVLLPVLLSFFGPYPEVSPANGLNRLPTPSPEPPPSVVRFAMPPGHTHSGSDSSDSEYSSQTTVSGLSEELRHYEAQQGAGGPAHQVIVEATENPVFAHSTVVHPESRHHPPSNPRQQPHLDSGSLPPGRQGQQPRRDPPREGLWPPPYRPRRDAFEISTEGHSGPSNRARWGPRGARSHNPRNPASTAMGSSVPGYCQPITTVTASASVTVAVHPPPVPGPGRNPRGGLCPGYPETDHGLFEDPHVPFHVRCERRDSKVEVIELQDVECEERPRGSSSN
Procedure: The screening of molecules on yeast was carried out as described in [18]. Briefly, S. cerevisiae expressing human Ptch1 were grown at 30 °C up to an OD600 between 1 and 2in minimal medium containing 2% of glucose and amino acid cocktail without leucine, and then diluted in rich medium containing 2% glucose in 96-well plates. An amount of 10 µM of molecules to be tested was added in 8 wells (10 molecules can be tested on one plate) and 10 µM of dxr was added to half of the wells. Plates were incubated at 18 °C on a shaker at 1250 rpm (microtiter plate shaker SSL5 Stuart) and absorbance at 600 nm was recorded for about 72 h.
Figure 1 P136 inhibits doxorubicin efflux activity of hPtch1 when expressed in yeast. (A) P136 inhibits the resistance of hPtch1-expressing yeast to doxorubicin. hPtch1-expressing yeast were grown in the presence of 10 µM of P136, P298 or P375, and in the presence or absence of 10 µM doxorubicin (dxr). DMSO was used as control. The growth of yeast was measured by absorbance at 600 nm. (B) P136 inhibits the efflux of doxorubicin of hPtch1-expressing yeast. hPtch1-expressing yeast and control yeast were incubated with dxr for 2 h and fixed for dxr loading control or resuspended in buffer containing DMSO or 10 μM P136 for 10 min, fixed and deposited on a coverslip for analysis by fluorescence microscopy. The dxr fluorescence of 100 yeast for each condition from 3 independent experiments was quantified using the ImageJ software. […] Significance is attained at p < 0.05 (*) (***: p < 0.0005, ****: p < 0.00005, ns: no significant difference).

[4] = test system: H295R cells; test: Spheroid formation in 3D culture of H295R cells; assay type: cell-based, human; conditions: 14 days
Procedure: H295R cells were cultured in DMEM/F-12, 2% NuSerum, 1% ITS Plus and penicillin/streptomycin supplemented with 20 µg/µL EGF and 20 µg/µL FGF. […] After 14 days, images of each well were taken using a cell imaging multi-mode reader (Cytation 5 from Bio Tek, Colmar, France). Then, 100 µL of the medium was removed from each well and 100 µL of Cell Titer Glow 3D reagent (Promega) was added. Spheroids were disrupted according to the protocol from the Cell Titer Glow 3D Viability Assay (Promega) and viability was measured in a microplate reader at 550 nm (Multiskan Go Microplate Spectrophotometer, Thermo Scientific).

[5] = Cytotoxicity assay (neutral red, 48 h) on H295R cells; assay type: cell-based, human; conditions: human, H295R cells at 80% confluence
Procedure: as §1

[6] = test system: H295R cells; test: Clone formation of H295R cells (14 days, crystal violet); assay type: cell-based, human; conditions: combination of dxr and astemizole
Procedure: After 14 days, clones were stained with crystal violet and pictures were taken. Cells were then solubilized and absorbance was measured in a microplate reader at 550 nm (Multiskan Go Microplate Spectrophotometer, Thermo Scientific, Illkirch, France).

[7] = Metabolic stability in rat liver microsomes; assay type: in vitro ADME; conditions: NADPH, read-out: RLM T1/2
Procedure: (§2) Profiling and PK studies were performed by GalenAuxi Co (Oxford, UK) as previously described. […] Plasma samples (50 μL) were collected via the facial vein at 3, 10, 30, 60, 120, 240, 360 and 1440 min post-dose for the IV group, and at 10, 30, 60, 120, 240, 360, 480 and 1440 min post-dose for the PO group in K2EDTA-coated tubes, mixed gently and centrifuged at 2500 g for 15 min at 4 °C within 1 h after collection. For control animals, blood was collected by cardiac puncture. Plasma samples were prepared in acetonitrile for LC-MS/MS analysis. Peak areas were recorded and the concentrations of the test compound in the unknown plasma samples were determined using the respective calibration curve.
(§3) We determined its lipophilicity described by the distribution constant LogD, its solubility, which is an important parameter since water is the solvent of choice for the liquid pharmaceutical formulation, its metabolic stability measured in the presence of rat and human microsomes and NADPH, and its ability to bind to proteins.

[8] = test system: MeWo cells; test: Doxorubicin efflux in MeWo melanoma cells; assay type: cell-based, human; conditions: 30 µM astemizole, 30 min
[9] = Distribution coefficient octanol/PBS pH 7.4; assay type: physicochemical; conditions: read-out: LogD7.4
[10] = Cell viability of MeWo melanoma cells (48 h); conditions: human, MeWo melanoma cells
Procedure: (§7) Cell viability was measured after 48 hours
(§8) doxorubicin (dxr) 2 μM. The graphs reported are representative of more than 3 independent
(§9) Cell viability was measured after 48 hours treatment
(§10) the mean ± SEM values of 3 independent experiments. Significance, calculated using ANOVA
(§11) multiple comparison test and Bonferroni correction, was attained at p < 0.05 (*) (***: p < 0.0005).

[11] = test system: MeWo cells; test: Cell viability of MeWo melanoma cells (48 h); conditions: MeWo cells, 48 h, serial dilutions of astemizole with 2 µM dxr
Procedure: as §7, §8, §9, §10, §11

[12] = biological target: T1, Ptch1; test: Doxorubicin efflux measurement in H295R cells; assay type: cell-based; parameters: endogenous in cells; host or cells: H295R; conditions: H295R cells loaded with 10 µM dxr 2 h, then 30 min efflux buffer with 10 µM astemizole
Procedure: (§4) After 2 h, some coverslips were immediately fixed with PFA and mounted in SlowFade Gold antifade reagent containing DAPI (Invitrogen) for loading control.
(§5) Images were acquired with a Zeiss Axioplan 2 fluorescence microscope coupled to a digital charge-coupled device camera using a 63X objective for yeast or a 40X /1.3 Plan NeoFluar objective for cells, and filters for Alexa 594 or FITC for dxr or Bo-chol analysis, respectively. Dxr or Bo-chol fluorescence was quantified using the ImageJ software. About 100 yeast/cells (from three wells) were scored per condition.
(§6) After 2 h, 3 coverslips were fixed for dxr or Bo-chol loading control. […] Images were acquired using fluorescence microscopy and a 40x objective. Fluorescence was quantified using the Image J software for 100 cells per condition.

[13] = test system: H295R cells; test: Synergy analysis of drug combination (Chou-Talalay) on H295R cells; assay type: cell-based, human; conditions: 48 h, dxr with 1 µM astemizole
Procedure: Synergy analysis was performed using the Chou-Talalay method for drug combination as described in [21, 22]. […] Normalized isobolograms and Chou-Talalay’s plots (Fa-CI plot were Fa is the fraction affected and CI is the combination index) were created using the Compusyn Software (Version 1.0 downloaded from www.combosyn.com). These allow quantitative determination of drug interactions, where CI < 1 (below the diagonal), =1 (diagonal) and >1 (above the diagonal) indicate synergism, additive effect and antagonism, respectively. Dose-reduction index (DRI) is reported.

[14] = biological target: T2, hPtch1 (Homo sapiens, UniProt Q13635); test: Doxorubicin efflux measurement in hPtch1-expressing yeast (fluorescence microscopy); assay type: cell-based; conditions: 10 µM P136 in efflux buffer, 10 min, 2-deoxy-D-glucose
T2 construct: expressed in transfected cells; host or cells: Saccharomyces cerevisiae strain K699
T2 sequence (Q13635 1-1447): T1 sequence (Q13635 1-1447)
Procedure: Efflux measurements were carried out as described in [19]. On yeast: hPtch1-expressing yeasts or control yeasts were grown to an OD600 of 5, centrifuged, washed with cold water and resuspended in HEPES–NaOH buffer (pH 7.0) containing 5 mM 2-deoxy-D-glucose and 10 µM dxr for 2 h at 4 °C. […] Yeasts were centrifuged, resuspended in 4% PFA and deposited on a coverslip with SlowFade Gold antifade reagent containing DAPI (Invitrogen).
as §5
Figure 1 P136 inhibits doxorubicin efflux activity of hPtch1 when expressed in yeast. […] The growth of yeast was measured by absorbance at 600 nm. (B) P136 inhibits the efflux of doxorubicin of hPtch1-expressing yeast. hPtch1-expressing yeast and control yeast were incubated with dxr for 2 h and fixed for dxr loading control or resuspended in buffer containing DMSO or 10 μM P136 for 10 min, fixed and deposited on a coverslip for analysis by fluorescence microscopy. […]

[15] = test system: HaCaT keratinocytes; test: Cell viability of HaCaT keratinocytes (48 h); assay type: cell-based, human; conditions: 10 µM astemizole
[16] = Human plasma protein binding; assay type: in vitro ADME; conditions: read-out: Ppb
[17] = test system: H295R cells
[18] = Solubility in aqueous buffer (PBS, pH 7.4); assay type: physicochemical
[19] = Metabolic stability in human liver microsomes; assay type: in vitro ADME; conditions: NADPH, read-out: HLM T1/2
Procedure: as §2, §3

[20] = biological target: T1, Ptch1; test: BODIPY-cholesterol efflux measurement in H295R cells; assay type: cell-based; parameters: endogenous in cells; host or cells: H295R; conditions: H295R cells loaded with BODIPY-cholesterol 2 h, then 30 min efflux buffer with 10 µM astemizole
Procedure: as §4, §5, §6

[21] = test system: caspase 3/7 activity; test: Apoptosis measurement (Caspase-Glo 3/7) in H295R cells; assay type: cell-based, human; conditions: 48 h, 0.5 µM astemizole, no dxr
Procedure: Quantification of caspase 3/7 activity was performed using the luminescent assay Caspase-Glo 3/7 (Promega, Charbonnières-les-Bains, France) and a luminometer (Glomax 96 Microplate Luminometer from Promega, Charbonnières-les-Bains, France) following the manufacturer’s protocol.

COc1cccc2c1C(=O)c1c(O)c3c(c(O)c1C2=O)C[C@@](O)(C(=O)CO)C[C@@H]3O[C@H]1C[C@H](N)[C@H](O)[C@H](C)O1 [Dxr, Doxorubicin hydrochloride]
IC50 ([1]; Homo sapiens, NCI-H295R, read-out: Dxr-IC50 Without Astemizole, H295R cells, neutral red, mean ± SEM of 3 experiments): 17.3 ± 3.6 µM
IC50 [2]: 0.1 ± 0.02 µM

CSc1ccc2c(c1)C(N1CCN(C)CC1)Cc1ccccc1S2 (stereo not drawn) [P375, methiothepin maleate]
effect on resistance/growth of hPtch1-expressing yeast in the presence of dxr [3]: significantly inhibited the resistance of hPtch1-expressing yeast to dxr

COc1ccc(CCN2CCC(Nc3nc4ccccc4n3Cc3ccc(F)cc3)CC2)cc1 [astemizole, Astemizole]
spheroid size with combination dxr + astemizole [4]: significantly smaller
IC50 at 48 h [5]: ~7 µM
increase of the efficacy of dxr combined with etoposide and mitotane (EDM) by astemizole ([1]; H295R cells, 1 µM astemizole, dxr + 10 µM etoposide + 10 µM mitotane): about eight times
increase of the cytotoxicity of dxr by astemizole ([1]; H295R cells, 1 µM astemizole, dxr alone): about 10 times
toxicity of astemizole by itself to ACC cells ([1]; H295R cells, 1 µM astemizole, no dxr): not toxic to ACC cells by itself
increase of the anti-clonogenic activity of dxr [6]: increased four times
half-life [7]: 31 min
effect on dxr efflux from melanoma cells [8]: inhibits dxr efflux from melanoma cells
logD [9]: 3.5
IC50 at 48 h [10]: ~7 µM
effect on dxr cytotoxicity in melanoma cells [11]: increases dxr cytotoxicity
dxr kept inside the cells [12]: about 73%
cooperativity indices (CI), dxr and astemizole [13]: below 1
effect on amount of dxr in hPtch1-expressing yeast (dxr efflux) [14]: increases the amount of dxr in hPtch1-expressing yeast significantly more than in control yeast
effect on keratinocyte viability [15]: very slight effect on keratinocyte viability
fraction unbound [16]: 0.01
effect of astemizole by itself on cell viability ([17]; 7 days, 0.5 µM astemizole, no dxr): does not affect cell viability by itself
effect of astemizole alone on proliferation ([17]; serial dilution of astemizole for 7 days): inhibited their proliferation
effect on resistance/growth of hPtch1-expressing yeast in the presence of dxr [3]: able to inhibit the growth of hPtch1-expressing yeast in the presence of dxr
effect on growth of hPtch1-expressing yeast in the absence of dxr ([3]; no dxr): without effects on the growth of hPtch1-expressing yeast in the absence of dxr
solubility [18]: 22.1 µM (≈ 10.1 µg/mL)
half-life [19]: > 60 min
Bo-chol kept inside the cells [20]: about 95%
effect of astemizole by itself on caspase 3/7 activity [21]: does not affect caspase 3/7 activity by itself
